Data: US20120029187A1, “HALOALKYLSULFONANILIDE DERIVATIVE” (Nissan Chemical Industries, Ltd., priority 2009, published 2012)

Tests used:
Format in all cases: in vivo
barnyardgrass [1] = assay: Test Example 1: herbicidal effects in preemergence treatment under submerged conditions; details: dose 2.52 g/a
How it was run: (§1)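 Flooded-paddy preemergence assay; EC diluted with water, surface-applied at weed seeding; doses g/a; rice transplanted at 2.5 leaves; 0–5 mortality score after 3 weeks.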

bulrush [2] = assay: as above; details: dose 2.52 g/a
How it was run: as §1

ducksalad [3] = assay: as above; details: dose 2.52 g/a
How it was run: as §1

transplanted rice = assay: Test Example 1: preemergence treatment under submerged conditions, effect on crop; details: dose 2.52 g/a
How it was run: as §1

barnyardgrass [4] = assay: Test Example 2: herbicidal effects during the vegetation period under submerged conditions; details: treatment during the vegetation period under submerged conditions; dose 2.52 g/a
How it was run: (§2)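 Barnyardgrass, bulrush and ducksalad were co-sown in alluvial soil flooded to 4 cm and grown in a greenhouse at 25 to 30° C. At the 1- or 2-leaf stage, water-diluted emulsifiable concentrates went onto the water surface at set doses (g/a). Herbicidal effect was scored three weeks later on a graded scale.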

bulrush [5] = assay: as above; details: treatment during the vegetation period under submerged conditions; dose 2.52 g/a
How it was run: as §2

ducksalad [6] = assay: as above; details: treatment during the vegetation period under submerged conditions; dose 2.52 g/a
How it was run: as §2

Italian ryegrass [7] = assay: Test Example 3: herbicidal effects in soil treatment; details: dose 3.2 g/a
How it was run: (§3)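 Seeds were sown in sterilized diluvial soil and covered with about 1.5 cm of soil. Compounds, formulated as emulsifiable concentrates and diluted with water, were sprayed evenly over the soil surface at set doses in g/a. Herbicidal effect was scored on a rating scale three weeks later.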

barnyardgrass [8] = assay: as above; details: dose 3.2 g/a
How it was run: as §3

beadstraw [9] = assay: as above; details: dose 3.2 g/a
How it was run: as §3

common chickweed [10] = assay: as above; details: dose 3.2 g/a
How it was run: as §3

common lambsquater [11] = assay: as above; details: dose 3.2 g/a
How it was run: as §3

common ragweed [12] = assay: as above; details: dose 3.2 g/a
How it was run: as §3

giant foxtail [13] = assay: as above; details: dose 3.2 g/a
How it was run: as §3

large crabgrass [14] = assay: as above; details: dose 3.2 g/a
How it was run: as §3

posumbu knotweed [15] = assay: as above; details: dose 3.2 g/a
How it was run: as §3

redroot pigweed [16] = assay: as above; details: dose 3.2 g/a
How it was run: as §3

velvetleaf [17] = assay: as above; details: dose 3.2 g/a
How it was run: as §3

water foxtail [18] = assay: as above; details: dose 3.2 g/a
How it was run: as §3

Italian ryegrass [19] = assay: Test Example 4: herbicidal effect in foliage treatment; details: dose 3.2 g/a, three weeks after application
How it was run: (§4)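 Seeds sown in sterilized diluvial soil under ~1.5 cm soil cover and grown 14 days in a greenhouse at 25 to 30° C. Emulsifiable concentrates diluted with water were then sprayed uniformly on foliage at predetermined doses (g/a). Herbicidal effect was scored three weeks after application on a graded evaluation scale.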

barnyardgrass [20] = assay: as above; details: dose 3.2 g/a, three weeks after application
How it was run: as §4

beadstraw [21] = assay: as above; details: dose 3.2 g/a, three weeks after application
How it was run: as §4

common chickweed [22] = assay: as above; details: dose 3.2 g/a, three weeks after application
How it was run: as §4

common lambsquater [23] = assay: as above; details: dose 3.2 g/a, three weeks after application
How it was run: as §4

common ragweed [24] = assay: as above; details: dose 3.2 g/a, three weeks after application
How it was run: as §4

giant foxtail [25] = assay: as above; details: dose 3.2 g/a, three weeks after application
How it was run: as §4

large crabgrass [26] = assay: as above; details: dose 3.2 g/a, three weeks after application
How it was run: as §4

posumbu knotweed [27] = assay: as above; details: dose 3.2 g/a, three weeks after application
How it was run: as §4

redroot pigweed [28] = assay: as above; details: dose 3.2 g/a, three weeks after application
How it was run: as §4

velvetleaf [29] = assay: as above; details: dose 3.2 g/a, three weeks after application
How it was run: as §4

water foxtail [30] = assay: as above; details: dose 3.2 g/a, three weeks after application
How it was run: as §4

In the case of `CCOC(=O)N(c1ccccc1CN1COC(C)(c2cc(Cl)nn2C)CC1=O)S(=O)(=O)C(F)(F)F` (stereo not shown) [II-60], the “A: barnyardgrass, herbicidal effect (evaluation scale 0-5)” value (barnyardgrass [1]) was 5 (mortality of 90% or above (nearly complete death)), the “B: bulrush, herbicidal effect (evaluation scale 0-5)” value (bulrush [2]) was 5 (mortality of 90% or above (nearly complete death)) and the “C: ducksalad, herbicidal effect (evaluation scale 0-5)” value (ducksalad [3]) was 5 (mortality of 90% or above (nearly complete death)). The “a: transplanted rice, effect on crop (evaluation scale 0-5)” value (transplanted rice) was 0 (mortality of less than 5% (almost ineffective)), the “A: barnyardgrass, herbicidal effect (evaluation scale 0-5)” value (barnyardgrass [4]) was 5 (mortality of 90% or above (nearly complete death)) and the “B: bulrush, herbicidal effect (evaluation scale 0-5)” value (bulrush [5]) was 5 (mortality of 90% or above (nearly complete death)). The “C: ducksalad, herbicidal effect (evaluation scale 0-5)” value (ducksalad [6]) was 5 (mortality of 90% or above (nearly complete death)), the “H: Italian ryegrass, herbicidal effect (evaluation scale 0-5)” value (Italian ryegrass [7]) was 3 (mortality of at least 40% and less than 70%) and the “A: barnyardgrass, herbicidal effect (evaluation scale 0-5)” value (barnyardgrass [8]) was 5 (mortality of 90% or above (nearly complete death)). The “O: beadstraw, herbicidal effect (evaluation scale 0-5)” value (beadstraw [9]) was 0 (mortality of less than 5% (almost ineffective)), the “N: common chickweed, herbicidal effect (evaluation scale 0-5)” value (common chickweed [10]) was 4 (mortality of at least 70% and less than 90%) and the “L: common lambsquater, herbicidal effect (evaluation scale 0-5)” value (common lambsquater [11]) was 1 (mortality of at least 5% and less than 20%). For the same compound, the “J: common ragweed, herbicidal effect (evaluation scale 0-5)” value (common ragweed [12]) was 1 (mortality of at least 5% and less than 20%), the “E: giant foxtail, herbicidal effect (evaluation scale 0-5)” value (giant foxtail [13]) was 5 (mortality of 90% or above (nearly complete death)) and the “D: large crabgrass, herbicidal effect (evaluation scale 0-5)” value (large crabgrass [14]) was 4 (mortality of at least 70% and less than 90%). For the same compound, the “M: posumbu knotweed, herbicidal effect (evaluation scale 0-5)” value (posumbu knotweed [15]) was 3 (mortality of at least 40% and less than 70%), the “K: redroot pigweed, herbicidal effect (evaluation scale 0-5)” value (redroot pigweed [16]) was 4 (mortality of at least 70% and less than 90%) and the “I: velvetleaf, herbicidal effect (evaluation scale 0-5)” value (velvetleaf [17]) was 4 (mortality of at least 70% and less than 90%). The “G: water foxtail, herbicidal effect (evaluation scale 0-5)” value (water foxtail [18]) was 5 (mortality of 90% or above (nearly complete death)), the “H: Italian ryegrass, herbicidal effect” value (Italian ryegrass [19]) was 3 (mortality of at least 40% and less than 70%) and the “A: barnyardgrass, herbicidal effect” value (barnyardgrass [20]) was 4 (mortality of at least 70% and less than 90%). For the same compound, the “O: beadstraw, herbicidal effect” value (beadstraw [21]) was 4 (mortality of at least 70% and less than 90%), the “N: common chickweed, herbicidal effect” value (common chickweed [22]) was 4 (mortality of at least 70% and less than 90%) and the “L: common lambsquater, herbicidal effect” value (common lambsquater [23]) was 2 (mortality of at least 20% and less than 40%). The “J: common ragweed, herbicidal effect” value (common ragweed [24]) was 3 (mortality of at least 40% and less than 70%), the “E: giant foxtail, herbicidal effect” value (giant foxtail [25]) was 3 (mortality of at least 40% and less than 70%) and the “D: large crabgrass, herbicidal effect” value (large crabgrass [26]) was 3 (mortality of at least 40% and less than 70%). The “M: posumbu knotweed, herbicidal effect” value (posumbu knotweed [27]) was 2 (mortality of at least 20% and less than 40%), the “K: redroot pigweed, herbicidal effect” value (redroot pigweed [28]) was 0 (mortality of less than 5% (almost ineffective)) and the “I: velvetleaf, herbicidal effect” value (velvetleaf [29]) was 3 (mortality of at least 40% and less than 70%). For the same compound, the “G: water foxtail, herbicidal effect” value (water foxtail [30]) was 5 (mortality of 90% or above (nearly complete death)).
